Here are results for 4 compounds from EP1590332B1, “A PROCESS FOR THE SYNTHESIS OF BISBENZIMIDAZOLES AND THEIR DERIVATIVES” (University of Delhi, priority 2003, dated 2004).

Each structure is given as a SMILES string. Like-named read-outs stand apart in the source and are kept apart here.

The nature of one data set: in vitro. The settings on record: bmg-1 cells.
The next data set has as its system Hek cells. Description: Macrocolony assay (cell survival assay) with 5 Gy irradiation. Particulars: 10uM drug added 1h before irradiation; for viability at 10 µM: Homo sapiens, HEK293, light or radiation study, read-out: Survival friction. Format: cell-based, human. As to the method:
Both cell lines in triplicate were washed with HBSS, plated and grown for four days before harvesting using 0.05% trypsin, Depending on the treatments, 200 to 1200 cells were plated in 90 mm petri dishes and incubated at 37°C in 5% CO2 humidified atmosphere for 8 to 10 days. Colonies were fixed with methanol and stained with 1 % crystal violet Colonies containing more than 50 cells were counted.
Exponentially growing cells, 24 h after plating were irradiated at room temperature in growth medium with a Co-60 source (Gamma cell, AECL, Canada) at a dose rate of 0.5 to 1.2 Gy/min. Concentration of 10µm drug was added 1h before irradiation. Following this procedure, cells were grown for various time intervals to study growth kinetics and plated for Macrocolony assay as shown in the following Tables 3 & 4 and figure 1 & 2 Table 3

Data set [1] relates to human brain malignant glioma cell line BMG-1. Description: MTT microtiter plate tetrazolium cytotoxicity assay. The settings on record: cells treated 1 h. Format: cell-based. As to the method:
(§1) The cytotoxic effect of DMA and TBZ on exponentially growing tumor cells BMG-1 was studied as a function of time. Cells were treated for 1 h with the ligands and allowed to grow for 24, 48 and 72 hours. The MTT assay was performed at the specified time points. […] There seemed to be no effect on the metabolic status of the treated cells. However, strikingly the metabolic activity of the treated cells seemed to be enhanced as compared to the untreated control cells. To further support our results we have performed cell survival assay at 0.1uM, 10uM and 100uM concentration of drug having control as untreated cell. These experiments were done thrice in six sets. Exponentially growing cells were used in these experiments and cell survival was studied using Macrocolony assay. The plating efficiency was nearly 77%. […] The increase in cell number as a function of time for the control as well as the treated cells remained same. The radioprotective effect of the newly synthesized ligands were studied spectroscopically as well as in human brain glioma cell line BMG-1. The spectroscopic studies done included UV-Vis sepctroscopy, Fluorescence spectroscopy, Anisotropy measurements and Lifetime measurements and Thermal denaturation studies. Calf thymus DNA was chosen as the DNA material and ligands were incubated with the DNA and irradiated at different doses of radiation. […] At the cellular level also, the ligands were incubated with the cells and cell survival assay was performed to study the radioprotective effect of the new ligands in comparison to the parent molecule Hoechst 33342.
The cytotoxicity was determined using the MTT microtiter plate tetrazolium cytotoxicity assay (MTA). The human brain malignant glioma cell line BMG-1 was used. The cytotoxicity assay was performed using 96-well microtiter plates. 3000 cells/ well were plated and treatment of the ligands was done 24 hours post plating. […] 150 µl of DMSO was added and the plate was read at 540 nm with reference at 630 nm.

Data set [2] concerns BMG-1 cells.
Procedure: (§2) The cytotoxic effect of DMA and TBZ on exponentially growing tumor cells BMG-1 was studied as a function of time. Cells were treated for 1 h with the ligands and allowed to grow for 24, 48 and 72 hours. The MTT assay was performed at the specified time points. […] These experiments were done thrice in six sets. Exponentially growing cells were used in these experiments and cell survival was studied using Macrocolony assay.
(§3) Cells were washed with HBSS and harvested using 0.05% trypsin. […] Colonies were fixed in methanol and stained with 1% crystal violet. Proliferation Kinetics BMG-1 cells were seeded at 7000-8000 cells/ cm^2, and their proliferation kinetics was measured at 24-h intervals by trypsinizinig and counting total cells per flask using a hemocytometer.
Data set [3] concerns BMG-1 cells. Description: cells. Particulars: Homo sapiens.
Procedure: as §2, §3
A further data set has as its system Calf thymus DNA. Description: Thermal denaturation / spectroscopic studies of ligand-DNA complex in presence and absence of radiation. Format: binding. The method, then:
as §1

Data set [4] relates to BMG-1 cells. As to the kind of experiment: Proliferation kinetics (growth kinetics). It is filed as cell-based, human. Particulars: 100µM, exponentially growing cells. The method, then: The cytotoxic effect of DMA and TBZ on exponentially growing tumor cells BMG-1 was studied as a function of time. Cells were treated for 1 h with the ligands and allowed to grow for 24, 48 and 72 hours. The MTT assay was performed at the specified time points. […] There seemed to be no effect on the metabolic status of the treated cells. However, strikingly the metabolic activity of the treated cells seemed to be enhanced as compared to the untreated control cells. To further support our results we have performed cell survival assay at 0.1uM, 10uM and 100uM concentration of drug having control as untreated cell. These experiments were done thrice in six sets. Exponentially growing cells were used in these experiments and cell survival was studied using Macrocolony assay. The plating efficiency was nearly 77%. […] The increase in cell number as a function of time for the control as well as the treated cells remained same. […] The spectroscopic studies done included UV-Vis sepctroscopy, Fluorescence spectroscopy, Anisotropy measurements and Lifetime measurements and Thermal denaturation studies. […]
Cells were washed with HBSS and harvested using 0.05% trypsin. […] Proliferation Kinetics BMG-1 cells were seeded at 7000-8000 cells/ cm^2, and their proliferation kinetics was measured at 24-h intervals by trypsinizinig and counting total cells per flask using a hemocytometer. […]

The mark [5] stands for this setting: Table 3: BMG-1, 5 Gy irradiation, 10uM drug added 1h before irradiation.
Setting [6] is: light or radiation study, read-out: Survival fraction, Table 3: BMG-1, 5 Gy irradiation, 10uM drug added 1h before irradiation.
The mark [7] stands for this setting: light or radiation study, read-out: Survival fraction, 1uM, no irradiation.
The mark [8] stands for this setting: light or radiation study, read-out: Survival fraction, 10uM, no irradiation.
Where [9] appears, read: light or radiation study, read-out: Survival fraction, 100uM, no irradiation.
Where [10] appears, read: read-out: Survival fraction, 1uM + 5 Gy.
[11] abbreviates: read-out: Survival fraction, 10uM + 2Gy.
The mark [12] stands for this setting: read-out: Survival fraction, 10uM + 5 Gy (Table 2).
Where [13] appears, read: read-out: Survival fraction, 10uM + 10 Gy.
Where [14] appears, read: read-out: Survival fraction, 100uM + 5 Gy.
[15] abbreviates: Ratio [ligand]/[DNA] 0.01, Dose 0 Gy.
The mark [16] stands for this setting: Ratio [ligand]/[DNA] 0.01, Dose 100 Gy.
[17] abbreviates: Ratio [ligand]/[DNA] 0.1, Dose 0 Gy.
[18] abbreviates: Ratio [ligand]/[DNA] 0.1, Dose 100 Gy.

Procedure for in vitro: as §2, §3

Turning to `CCOc1ccc(-c2nc3ccc(-c4nc5ccc(N6CCN(C)CC6)cc5[nH]4)cc3[nH]2)cc1` [Hoechst 33342, reference compound], the viability at 100 µM in “in vitro” (cell survival, 100µM, no irradiation) came to 10%. Besides, the viability at 10 µM in the data set “in vitro” (surviving fraction, 10µM, no irradiation) came out at 45%; in the data set with Hek cells, 10%; in the data set with BMG-1 cells [3] (setting [6]), 10%. Besides, the Plating efficiency % with Hek cells and in the data set on BMG-1 cells [2] (setting [5]) was 20% throughout. In data set [1] (10µM, MTT at 24, 48 and 72 hours), the cytotoxicity result was “highly cytotoxic”. Also, in the data set on BMG-1 cells [2] (low concentrations, no irradiation), the “effect on cell survival” value is reported as “do not seem to have considerable effect on cell survival”.
Regarding `COc1ccc(-c2nc3cc(-c4nc5cc(N6CCN(C)CC6)ccc5[nH]4)ccc3[nH]2)cc1OC` [DMA, 5-(4-methylpiperazin-1-yl)-2-[2'-(3,4-dimethoxyphenyl)-5'-benzimidazolyl]benzimidazole], the cytotoxicity at 10 µM in the data set “in vitro” turned out to be 3%. Further, the viability at 100 µM came out at 73% in “in vitro”, 95% in the data set with BMG-1 cells [3] (setting [9]) and 38% with BMG-1 cells [3] (setting [14]). Besides, the Plating efficiency % is recorded as 27% with Hek cells; 22% with BMG-1 cells [2] (1uM + 5 Gy); 65% in the data set on BMG-1 cells [2] (1uM, no irradiation); 63% in the data set with BMG-1 cells [2] (10uM + 2Gy); 27% with BMG-1 cells [2] (10uM + 5 Gy (Table 2)); 4% with BMG-1 cells [2] (10uM + 10 Gy). Moreover, the Plating efficiency % came out at 67% in the data set on BMG-1 cells [2] (10uM, no irradiation); 25% in the data set with BMG-1 cells [2] (100uM + 5 Gy); 64% with BMG-1 cells [2] (100uM, no irradiation); 27% in the data set on BMG-1 cells [2] (setting [5]). Moreover, the viability at 10 µM with Hek cells stood at 50%; with BMG-1 cells [3] (setting [8]), 100%; in the data set on BMG-1 cells [3] (setting [6]), 40%; in the data set on BMG-1 cells [3] (setting [11]) it was 93%; in the data set on BMG-1 cells [3] (setting [12]), 40%; with BMG-1 cells [3] (setting [13]), 6%. Besides, in data set [1] (100µM, MTT up to 72 hours), the cytotoxicity result was “do not show any cytotoxicity”. The viability at 1 µM with BMG-1 cells [3] (setting [7]) came out at 97%; in the data set with BMG-1 cells [3] (setting [10]), 32%.
In general, Tm refers to the temperature at which the thermal transition is half complete. Take `CN1CCN(c2ccc3nc(-c4ccc5nc(-c6ccc(O)cc6)[nH]c5c4)[nH]c3c2)CC1` [Hoechst 33258, reference compound]: the Tm stood at 71.5 °C in the data set with Calf thymus DNA (setting [15]), 67.5 °C in the data set on Calf thymus DNA (setting [16]), 81.7 °C in the data set on Calf thymus DNA (setting [17]) and 79.3 °C in the data set on Calf thymus DNA (setting [18]).
Turning to `COc1cc(-c2nc3cc(-c4nc5cc(-c6nc7cc(N8CCN(C)CC8)ccc7[nH]6)ccc5[nH]4)ccc3[nH]2)ccc1O` [TBZ, 5-(4-methylpiperazine-1-yl)-2-[2'-{2"-(4-hydroxy-3-methoxyphenyl)-5"-benzimidazolyl}-5'-benzimidazolyl]benzimidazole], the cytotoxicity at 100 µM in “in vitro” came to 9%. Also, the viability at 100 µM is 92% in “in vitro”, 102% with BMG-1 cells [3] (setting [9]) and 26% in the data set on BMG-1 cells [3] (setting [14]). Further, the Tm in the data set with Calf thymus DNA (setting [15]) worked out at 74.3 °C; in the data set on Calf thymus DNA (setting [16]) it was 75 °C; in the data set with Calf thymus DNA (setting [17]) it was 77.7 °C; in the data set on Calf thymus DNA (setting [18]), 81.5 °C. For the same compound, the Plating efficiency % in the data set with Hek cells is 25%; with BMG-1 cells [2] (1uM + 5 Gy) it was 21%; in the data set with BMG-1 cells [2] (1uM, no irradiation), 73%; with BMG-1 cells [2] (10uM + 2Gy), 60%; with BMG-1 cells [2] (10uM + 5 Gy (Table 2)), 20%; in the data set on BMG-1 cells [2] (10uM + 10 Gy), 3.5%. Also, the Plating efficiency % with BMG-1 cells [2] (10uM, no irradiation) is on record as 71%; in the data set on BMG-1 cells [2] (100uM + 5 Gy), 18%; in the data set with BMG-1 cells [2] (100uM, no irradiation) it was 69%; with BMG-1 cells [2] (setting [5]) it was 20%. Further, the viability at 10 µM in the data set on Hek cells came to 48%; in the data set on BMG-1 cells [3] (setting [8]) it was 105%; in the data set on BMG-1 cells [3] (setting [6]), 30%; in the data set with BMG-1 cells [3] (setting [11]) it was 89%; in the data set on BMG-1 cells [3] (setting [12]), 30%; in the data set with BMG-1 cells [3] (setting [13]), 5%. Further, in data set [1] (100µM, MTT up to 72 hours), the cytotoxicity result was “do not show any cytotoxicity”. Besides, the effect on growth result in the data set with BMG-1 cells [2] (10µM, no irradiation) is listed as “increase in growth”; with BMG-1 cells [2] (low concentrations (upto 10µM), no irradiation), “slight stimulatory effect on growth”. In the data set with BMG-1 cells [2] (conclusion from BMG-1 and Hek cell lines), the “radioprotection in comparison to Hoechst 33342” value is on record as “better radioprotectors”. Besides, the “growth kinetics of the treated cells” value in the data set on BMG-1 cells [4] is “did not differ from the untreated cells”. Also, the figures for the viability at 1 µM in the data set on BMG-1 cells [3] (setting [7]) and in the data set on BMG-1 cells [3] (setting [10]) were 107% and 31%, respectively.
